Several values for one entry are separate records, joined by “and”; a condition that tells them apart may be missing. Identical values can stand only once. Toxic doses and inconclusive results are not listed.
System: CD2F1 mice, L1210 leukemia sc, survival T/C
Test: NCI In Vivo Anticancer Drug Screen. Data for tumor model L1210 Leukemia (subcutaneous) in CD2F1 (CDF1) mice
Details: endpoint: median survival time, higher = longer survival
Procedure, shortened: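 Antitumor activity is scored in tumor-bearing mice by comparing survival or tumor size of treated animals against vehicle-treated controls, reported as T/C.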

## O=P1(N(CCCl)CCCl)NCCCO1 (stereo not drawn)
dose: 6.25 mg/kg/injection, schedule: Q01DX009 (ip), vehicle: saline
  T/C: 103 % of control
dose: 6.25 mg/kg/injection, schedule: Q01DX009 (sc), vehicle: saline
  T/C: 107 % of control
dose: 12.5 mg/kg/injection, schedule: Q01DX009 (ip), vehicle: saline
  T/C: 106 % of control and 107 % of control
dose: 12.5 mg/kg/injection, schedule: Q01DX009 (sc), vehicle: saline
  T/C: 110 % of control
dose: 23.0 mg/kg/injection, schedule: Q01DX Z (sc), vehicle: saline
  T/C: 210 % of control
dose: 25.0 mg/kg/injection, schedule: Q01DX009 (ip), vehicle: saline
  T/C: 151 % of control
dose: 39.0 mg/kg/injection, schedule: Q01DX Z (sc), vehicle: saline
  T/C: 221 % of control
dose: 39.0 mg/kg/injection, schedule: Q08DX003 (ip), vehicle: none
  T/C: 118 % of control
dose: 39.0 mg/kg/injection, schedule: Q08DX003 (sc), vehicle: saline
  T/C: 116 % of control
dose: 50.0 mg/kg/injection, schedule: Q01DX009 (ip), vehicle: saline
  T/C: 165 % of control and 173 % of control and 177 % of control
dose: 50.0 mg/kg/injection, schedule: Q01DX009 (sc), vehicle: saline
  T/C: 191 % of control
dose: 65.0 mg/kg/injection, schedule: Q01DX Z (sc), vehicle: saline
  T/C: 236 % of control
dose: 65.0 mg/kg/injection, schedule: Q07DX003 (ip), vehicle: saline
  T/C: 123 % of control
dose: 65.0 mg/kg/injection, schedule: Q08DX003 (ip), vehicle: none
  T/C: 188 % of control
dose: 65.0 mg/kg/injection, schedule: Q08DX003 (sc), vehicle: saline
  T/C: 172 % of control
dose: 65.0 mg/kg/injection, schedule: Q## X Z (sc), vehicle: saline
  T/C: 215 % of control
dose: 100.0 mg/kg/injection, schedule: Q01DX009 (ip), vehicle: saline
  T/C: 222 % of control and 247 % of control and 89 % of control
dose: 100.0 mg/kg/injection, schedule: Q01DX009 (sc), vehicle: saline
  T/C: 259 % of control
dose: 108.0 mg/kg/injection, schedule: Q01DX001 (sc), vehicle: saline
  T/C: 164 % of control and 166 % of control and 168 % of control
dose: 108.0 mg/kg/injection, schedule: Q01DX Z (sc), vehicle: saline
  T/C: 189 % of control
dose: 108.0 mg/kg/injection, schedule: Q07DX003 (ip), vehicle: saline
  T/C: 183 % of control
dose: 108.0 mg/kg/injection, schedule: Q07DX003 (sc), vehicle: saline
  T/C: 211 % of control and 217 % of control
dose: 108.0 mg/kg/injection, schedule: Q07DX Z (sc), vehicle: saline
  T/C: 226 % of control
dose: 108.0 mg/kg/injection, schedule: Q08DX003 (ip), vehicle: none
  T/C: 241 % of control
dose: 108.0 mg/kg/injection, schedule: Q08DX003 (sc), vehicle: saline
  T/C: 227 % of control
dose: 108.0 mg/kg/injection, schedule: Q## X Z (sc), vehicle: saline
  T/C: 231 % of control
dose: 180.0 mg/kg/injection, schedule: Q01DX001 (sc), vehicle: saline
  T/C: 197 % of control and 200 % of control (2×)
dose: 180.0 mg/kg/injection, schedule: Q01DX Z (sc), vehicle: saline
  T/C: 152 % of control
dose: 180.0 mg/kg/injection, schedule: Q07DX003 (ip), vehicle: saline
  T/C: 274 % of control
dose: 180.0 mg/kg/injection, schedule: Q07DX003 (sc), vehicle: saline
  T/C: 355 % of control and 373 % of control
dose: 180.0 mg/kg/injection, schedule: Q07DX Z (sc), vehicle: saline
  T/C: 284 % of control
dose: 180.0 mg/kg/injection, schedule: Q08DX003 (ip), vehicle: none
  T/C: 288 % of control
dose: 180.0 mg/kg/injection, schedule: Q08DX003 (sc), vehicle: saline
  T/C: 283 % of control
dose: 180.0 mg/kg/injection, schedule: Q## X Z (sc), vehicle: saline
  T/C: 263 % of control
dose: 300.0 mg/kg/injection, schedule: Q01DX001 (sc), vehicle: saline
  T/C: 242 % of control and 244 % of control and 252 % of control
dose: 300.0 mg/kg/injection, schedule: Q07DX003 (ip), vehicle: saline
  T/C: 274 % of control
dose: 300.0 mg/kg/injection, schedule: Q07DX003 (sc), vehicle: saline
  T/C: 283 % of control and 296 % of control
dose: 300.0 mg/kg/injection, schedule: Q07DX Z (sc), vehicle: saline
  T/C: 231 % of control
dose: 300.0 mg/kg/injection, schedule: Q08DX003 (ip), vehicle: none
  T/C: 222 % of control
dose: 300.0 mg/kg/injection, schedule: Q08DX003 (sc), vehicle: saline
  T/C: 205 % of control
dose: 500.0 mg/kg/injection, schedule: Q01DX001 (sc), vehicle: saline
  T/C: 120 % of control and 221 % of control
dose: 500.0 mg/kg/injection, schedule: Q## X Z (sc), vehicle: saline
  T/C: 152 % of control
dose: 833.0 mg/kg/injection, schedule: Q01DX001 (sc), vehicle: saline
  T/C: 210 % of control
dose: 833.0 mg/kg/injection, schedule: Q07DX Z (sc), vehicle: saline
  T/C: 157 % of control

## O=C/C(Br)=C(/Br)C(=O)O
dose: 3.0 mg/kg/injection, schedule: Q01DX Z (sc), vehicle: other
  T/C: 100 % of control
dose: 5.0 mg/kg/injection, schedule: Q01DX Z (sc), vehicle: other
  T/C: 100 % of control
dose: 8.4 mg/kg/injection, schedule: Q01DX Z (sc), vehicle: other
  T/C: 100 % of control
dose: 14.0 mg/kg/injection, schedule: Q01DX Z (sc), vehicle: other
  T/C: 100 % of control
dose: 39.0 mg/kg/injection, schedule: Q01DX Z (sc), vehicle: other
  T/C: 100 % of control

## CCOC(C)C(/C=N/NC(N)=S)=NNC(N)=S (stereo not drawn)
dose: 65.0 mg/kg/injection, schedule: Q01DX Z (sc), vehicle: carboxymethylcellulose (CMC)
  T/C: 110 % of control
dose: 108.0 mg/kg/injection, schedule: Q01DX Z (sc), vehicle: carboxymethylcellulose (CMC)
  T/C: 110 % of control
dose: 180.0 mg/kg/injection, schedule: Q01DX Z (sc), vehicle: carboxymethylcellulose (CMC)
  T/C: 120 % of control
dose: 300.0 mg/kg/injection, schedule: Q01DX Z (sc), vehicle: carboxymethylcellulose (CMC)
  T/C: 110 % of control

## Nc1nc([Se]c2nc(N)nc3c2ncn3C2OC(CO)C(O)C2O)c2ncn(C3OC(CO)C(O)C3O)c2n1 (stereo not drawn)
dose: 12.5 mg/kg/injection, schedule: Q01DX005 (ip), vehicle: distilled water + Tween-80
  T/C: 106 % of control
dose: 25.0 mg/kg/injection, schedule: Q01DX005 (ip), vehicle: distilled water + Tween-80
  T/C: 115 % of control
dose: 36.0 mg/kg/injection, schedule: Q01DX009 (ip), vehicle: distilled water + Tween-80
  T/C: 151 % of control
dose: 50.0 mg/kg/injection, schedule: Q01DX005 (ip), vehicle: distilled water + Tween-80
  T/C: 122 % of control
dose: 60.0 mg/kg/injection, schedule: Q01DX009 (ip), vehicle: distilled water + Tween-80
  T/C: 151 % of control and 168 % of control
dose: 100.0 mg/kg/injection, schedule: Q01DX009 (ip), vehicle: distilled water + Tween-80
  T/C: 156 % of control and 164 % of control
dose: 167.0 mg/kg/injection, schedule: Q01DX009 (ip), vehicle: distilled water + Tween-80
  T/C: 255 % of control and 297 % of control

## COC12C(COC(N)=O)C3=C(C(=O)C(C)=C(N)C3=O)N1CC1C2N1C (stereo not drawn)
dose: 2.0 mg/kg/injection, schedule: Q01DX009 (ip), vehicle: saline
  T/C: 101 % of control
dose: 3.75 mg/kg/injection, schedule: Q01DX009 (ip), vehicle: saline
  T/C: 105 % of control
dose: 4.0 mg/kg/injection, schedule: Q01DX009 (ip), vehicle: saline
  T/C: 120 % of control
dose: 7.5 mg/kg/injection, schedule: Q01DX009 (ip), vehicle: saline
  T/C: 110 % of control
dose: 15.0 mg/kg/injection, schedule: Q01DX009 (ip), vehicle: saline
  T/C: 117 % of control
dose: 16.0 mg/kg/injection, schedule: Q01DX009 (ip), vehicle: saline
  T/C: 101 % of control

## O=c1cnn(C2OC(CO)C(O)C2O)c(=O)[nH]1 (stereo not drawn)
dose: 37.5 mg/kg/injection, schedule: Q01DX009 (ip), vehicle: saline
  T/C: 113 % of control
dose: 75.0 mg/kg/injection, schedule: Q01DX009 (ip), vehicle: saline
  T/C: 120 % of control
dose: 250.0 mg/kg/injection, schedule: Q01DX Z (sc), vehicle: saline
  T/C: 111 % of control
dose: 500.0 mg/kg/injection, schedule: Q01DX Z (sc), vehicle: saline
  T/C: 116 % of control
dose: 1000.0 mg/kg/injection, schedule: Q01DX Z (sc), vehicle: saline
  T/C: 111 % of control
dose: 1200.0 mg/kg/injection, schedule: Q01DX009 (ip), vehicle: saline
  T/C: 103 % of control
dose: 1200.0 mg/kg/injection, schedule: Q01DX009 (sc), vehicle: saline
  T/C: 107 % of control
